According to US12552753B2, “Methods and compositions for targeting Tregs using CCR8 inhibitors” (Nanjing Immunophage Biomedical Co., Ltd., priority 2020, dated 2026):
pIC50: −log10 of the molar value. Where a name gives a salt, the structure may show the parent alone.

Each compound was assayed against CCR8 (Homo sapiens, UniProt P51685) (assay: Tango assay (Tango-CCR8-Gal4-CHO-K1 cells, CCL1-stimulated, ONE-Glo luminescence)). Settings: Tango Assay IC50, Inhibition of CCR8 Tango cell in vitro.
Chain of CCR8 (P51685 whole entry, the tested form may be a part): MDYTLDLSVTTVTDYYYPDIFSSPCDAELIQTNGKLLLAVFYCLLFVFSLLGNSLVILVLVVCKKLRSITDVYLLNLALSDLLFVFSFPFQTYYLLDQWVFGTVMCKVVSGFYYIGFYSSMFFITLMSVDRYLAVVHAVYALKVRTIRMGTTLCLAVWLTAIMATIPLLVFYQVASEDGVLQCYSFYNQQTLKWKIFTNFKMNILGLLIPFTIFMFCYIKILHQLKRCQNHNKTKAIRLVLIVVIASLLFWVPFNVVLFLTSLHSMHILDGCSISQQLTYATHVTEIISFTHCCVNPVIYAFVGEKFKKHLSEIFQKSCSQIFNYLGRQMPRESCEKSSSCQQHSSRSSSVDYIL

Structure (SMILES) | pIC50
Cc1cc(S(=O)(=O)N[C@H](C)C2CCNCC2)ccc1NC(=O)C1CCOCC1 [Compound 212A, (R)-N-(2-methyl-4-(N-(1-(piperidin-4-yl)ethyl)sulfamoyl)phenyl)tetrahydro-2H-pyran-4-carboxamide hydrochloride] | 5.60
Cc1ccccc1C(=O)Nc1ccc(S(=O)(=O)NC(C)CC2CCN(C)CC2)c2ccccc12 (stereo not drawn) [Compound 214, 2-methyl-N-(4-(N-(1-(1-methylpiperidin-4-yl)propan-2-yl)sulfamoyl)naphthalen-1-yl)benzamide] | < 5.00
Cc1ccccc1C(=O)Nc1ccc(S(=O)(=O)N[C@H](C)C2CCN(C)CC2)cc1C#N [Compound 221, (R)-N-(2-cyano-4-(N-(1-(1-methylpiperidin-4-yl)ethyl)sulfamoyl)phenyl)-2-methylbenzamide] | 7.62
Cc1ccccc1NC(=O)c1ccc(S(=O)(=O)N[C@H](C)C2CCN(C)CC2)cc1C [Compound 222, (R)-2-methyl-4-(N-(1-(1-methylpiperidin-4-yl)ethyl)sulfamoyl)-N-(o-tolyl)benzamide] | 6.44
CCC(NS(=O)(=O)c1ccc(NC(=O)c2ccccc2C)c(C)c1)C1CCNCC1 (stereo not drawn) [Compound 223A, 2-methyl-N-(2-methyl-4-(N-(1-(piperidin-4-yl)propyl)sulfamoyl)phenyl)benzamide hydrochloride] | 7.14
Cc1cc(S(=O)(=O)NC(C(C)C)C2CCNCC2)ccc1NC(=O)c1ccccc1C (stereo not drawn) [Compound 224A, 2-methyl-N-(2-methyl-4-(N-(2-methyl-1-(piperidin-4-yl)propyl)sulfamoyl)phenyl)benzamide hydrochloride] | 6.31
Cc1cc(S(=O)(=O)NC(C2CCNCC2)C2CC2)ccc1NC(=O)c1ccccc1C (stereo not drawn) [Compound 225A, N-(4-(N-(cyclopropyl (piperidin-4-yl)methyl)sulfamoyl)-2-methylphenyl)-2-methylbenzamide] | 7.60
Cc1cc(S(=O)(=O)NC(c2ccccc2)C2CCNCC2)ccc1NC(=O)c1ccccc1C (stereo not drawn) [Compound 227A, 2-methyl-N-(2-methyl-4-(N-(phenyl(piperidin-4-yl)methyl)sulfamoyl)phenyl)benzamide] | < 4.00
Cc1cc(S(=O)(=O)N[C@H](C)C2C[C@@H]3CCC2N3)ccc1NC(=O)c1ccccc1C (stereo partly drawn) [Compound 228A, N-(4-(N-(1-(exo-7-azabicyclo[2.2.1]heptan-2-yl)ethyl)sulfamoyl)-2-methylphenyl)-2-methylbenzamide hydrochloride] | < 4.00
Cc1ccccc1CNc1ccc(S(=O)(=O)N[C@H](C)C2CCN(C)CC2)cc1C [Compound 229, (R)-3-methyl-4-((2-methylbenzyl)amino)-N-(1-(1-methylpiperidin-4-yl)ethyl)benzenesulfonamide] | < 4.00
Cc1ccccc1C(=O)N(C)c1ccc(S(=O)(=O)N[C@H](C)C2CCNCC2)cc1C [Compound 231A, (R)-N,2-dimethyl-N-(2-methyl-4-(N-(1-(piperidin-4-yl)ethyl)sulfamoyl)phenyl)benzamide hydrochloride] | 6.55
CCOC(=O)C(C)(C)C(C)NS(=O)(=O)c1ccc(NC(=O)c2ccccc2C)c(C)c1 (stereo not drawn) [Compound 232, ethyl 2,2-dimethyl-3-(3-methyl-4-(2-methylbenzamido)phenylsulfonamido) butanoate] | 6.16
Cc1cc(S(=O)(=O)NC(C)C(C)(C)CO)ccc1NC(=O)c1ccccc1C (stereo not drawn) [Compound 233, 3-((4-(N-(4-hydroxy-3,3-dimethylbutan-2-yl)sulfamoyl)-2-methylphenyl)carbamoyl)-2-methylbenzene-1-ylium] | 6.05
Cc1cc(S(=O)(=O)NC(CO)C2CCNCC2)ccc1NC(=O)c1ccccc1C (stereo not drawn) [Compound 234, N-(4-(N-(2-hydroxy-1-(piperidin-4-yl)ethyl)sulfamoyl)-2-methylphenyl)-2-methylbenzamide] | 5.85
Cc1cc(S(=O)(=O)N[C@H](C)C2CCNCC2)ccc1NC(=O)Nc1ccccc1 [Compound 236A, (R)-3-methyl-4-(3-phenylureido)-N-(1-(piperidin-4-yl)ethyl)benzenesulfonamide hydrochloride] | 6.80
Cc1cc(S(=O)(=O)N(C)[C@H](C)C2CCNCC2)ccc1NC(=O)c1ccccc1C [Compound 237A, (R)-2-methyl-N-(2-methyl-4-(N-methyl-N-(1-(piperidin-4-yl)ethyl)sulfamoyl)phenyl)benzamide hydrochloride] | < 4.00
Cc1cc(S(=O)(=O)NCC2CCN(C)CC2)ccc1NC(=O)c1ccccc1C [Compound 238, 2-methyl-N-(2-methyl-4-(N-((1-methylpiperidin-4-yl)methyl)sulfa-moyl)phenyl)benza-mide] | 6.43
Cc1cc(S(=O)(=O)NC(C)C2CCOCC2)ccc1NC(=O)c1ccccc1C (stereo not drawn) [Compound 239, 2-methyl-N-(2-methyl-4-(N-(1-(tetrahydro-2H-pyran-4-yl)ethyl)sulfamoyl)phen-yl)benzamide] | 6.07

Structure (SMILES) | pIC50
COC(=O)C(NS(=O)(=O)c1ccc(NC(=O)c2ccccc2C)c(C)c1)C1CCNCC1 (stereo not drawn) [Compound 240A, methyl 2-((3-methyl-4-(2-methylbenzamido)phen-yl)sulfonamido)-2-(piperidin-4-yl)acetate hydrochloride] | < 4.00
Cc1cc(S(=O)(=O)NC(C)C23CCN(CC2)CC3)ccc1NC(=O)c1ccccc1C (stereo not drawn) [Compound 241, 2-methyl-N-(2-methyl-4-(N-(1-(quiuclidin-4-yl)ethyl)sulfamoyl)phen-yl)benzamide] | 6.59
Cc1ccccc1C(=O)Nc1cc(F)c(S(=O)(=O)N[C@H](C)C2CCNCC2)cc1Cl [Compound 242A, (R)-N-(2-chloro-5-fluoro-4-(N-(1-(piperidin-4-yl)eth-yl)sulfamoyl)phen-yl)-2-methylbenzamide hydrochloride] | 7.82
Cc1ccccc1C(=O)Nc1cc(F)c(S(=O)(=O)N[C@@H](C)C2CCNCC2)cc1Cl [Compound 242B, (S)-N-(2-chloro-5-fluoro-4-(N-(1-(piperidin-4-yl)ethyl)sulfamoyl)phenyl)-2-methylbenzamide hydrochloride] | < 4.00
Cc1ccccc1C(=O)Nc1cc(Cl)c(S(=O)(=O)N[C@H](C)C2CCNCC2)cc1Cl [Compound 243A, (R)-N-(2,5-dichloro-4-(N-(1-(piperidin-4-yl)ethyl)sulfamoyl)phen-yl)-2-methylbenzamide hydrochloride] | 7.92
Cc1ccccc1C(=O)Nc1cc(Cl)c(S(=O)(=O)N[C@@H](C)C2CCNCC2)cc1Cl [Compound 243B, (S)-N-(2,5-dichloro-4-(N-(1-(piperidin-4-yl)ethyl)sulfamoyl)phen-yl)-2-methylbenzamide hydrochloride] | < 4.00
Cc1ccccc1C(=O)Nc1ccc(S(=O)(=O)N[C@H](C)C2CCNCC2)c(Cl)c1Cl [Compound 244A, (R)-N-(2,3-dichloro-4-(N-(1-(piperidin-4-yl)ethyl)sulfamoyl)phen-yl)-2-methylbenzamide hydrochloride] | 6.98
Cc1ccccc1C(=O)Nc1ccc(S(=O)(=O)N[C@H](C)C2CCNCC2)c(C)c1Cl [Compound 245A, (R)-N-(2-chloro-3-methyl-4-(N-(1-(piperidin-4-yl)ethyl)sulfamoyl)phen-yl)-2-methylbenzamide hydrochloride] | < 4.00
Cc1ccccc1C(=O)Nc1ccc(S(=O)(=O)N[C@H](C)C2CCNCC2)c(F)c1Cl [Compound 246A, (R)-N-(2-chloro-3-fluoro-4-(N-(1-(piperidin-4-yl)ethyl)sulfamoyl)phenyl)-2-methylbenzamide hydrochloride] | 7.10
Cc1cc(S(=O)(=O)N[C@H](C)C2CCN(C3CCCC3)CC2)ccc1NC(=O)c1ccccc1C [Compound 247, (R)-N-(4-(N-(1-(1-cyclopentylpiperidin-4-yl)ethyl)sulfamoyl)-2-methylphenyl)-2-methylbenzamide] | 9.00
COC(=O)CN1CCC([C@@H](C)NS(=O)(=O)c2ccc(NC(=O)c3ccccc3C)c(C)c2)CC1 [Compound 248, methyl(R)-2-(4-(1-((3-methyl-4-(2-methylbenzamido)phenyl)sulfonamido)ethyl)piperidin-1-yl)acetate] | 6.98
Cc1cc(S(=O)(=O)N[C@H](C)C2CCNCC2)ccc1NC(=O)c1ccccc1C(F)(F)F [Compound 249A, (R)-N-(2-methyl-4-(N-(1-(piperidin-4-yl)ethyl)sulfamoyl)phenyl)-2-(trifluoromethyl) benzamide hydrochloride] | 7.92
Cc1cc(S(=O)(=O)N[C@H](C)C2CCNCC2)ccc1NC(=O)c1ccsc1C [Compound 250A, (R)-2-methyl-N-(2-methyl-4-(N-(1-(piperidin-4-yl)ethyl)sulfamoyl)phenyl)thiophene-3-carboxamide hydrochloride] | 6.98
Cc1cc(S(=O)(=O)N[C@H](C)C2CCNCC2)ccc1NC(=O)c1ccncc1C [Compound 251A, (R)-3-methyl-N-(2-methyl-4-(N-(1-(piperidin-4-yl)ethyl)sulfamoyl)phenyl)isonicotinamide hydrochloride] | < 4.00
Cc1cc(S(=O)(=O)N[C@H](C)C2CCNCC2)ccc1NC(=O)c1cncs1 [Compound 252A, (R)-N-(2-methyl-4-(N-(1-(piperidin-4-yl)ethyl)sulfamoyl)phenyl)thiazole-5-carboxamide hydrochloride] | < 4.00
Cc1cc(S(=O)(=O)N[C@H](C)C2CCNCC2)ccc1NC(=O)c1nccs1 [Compound 253A, (R)-N-(2-methyl-4-(N-(1-(piperidin-4-yl)ethyl)sulfamoyl)phenyl)thiazole-2-carboxamide hydrochloride] | 6.07
Cc1cc(S(=O)(=O)N[C@H](C)C2CCNCC2)ccc1NC(=O)C1CCC1 [Compound 254, (R)-N-(2-methyl-4-(N-(1-(piperidin-4-yl)ethyl)sulfamoyl)phenyl) cyclobutanecarboxamide] | < 4.00

Same assay, conditions: read-out: Tango Assay IC50, Inhibition of CCR8 Tango cell in vitro

Structure (SMILES) | pIC50
Cc1ccccc1C(=O)Nc1c(C)cc(S(=O)(=O)N[C@H](C)C2CCN(C)CC2)cc1Cl [Compound 220, (R)-N-(2-chloro-6-methyl-4-(N-(1-(1-methylpiperidin-4-yl)ethyl)sulfamoyl)phenyl)-2-methylbenzamide] | 9.00
